Results as given in US11702404B2, “GLP-1R modulating compounds” (priority 2019, dated 2023).
Read-outs that look alike come from different tables or passages of the source.

Tests used:
GLP-1R = GLP-1R (Homo sapiens, UniProt P43220); assay: GLP-1R activation: cAMP increase in CHO cells stably expressing GLP-1R; type: cell-based
[1] = Microsomal stability, human liver microsomes (predicted hepatic clearance); conditions: predicted from in vitro microsomal stability data
[2] = cAMP increase, CHO cells stably expressing GLP-1R, 10 point dose response, 30 minutes incubation, read-out: EC50

Chain of GLP-1R (P43220 24-463): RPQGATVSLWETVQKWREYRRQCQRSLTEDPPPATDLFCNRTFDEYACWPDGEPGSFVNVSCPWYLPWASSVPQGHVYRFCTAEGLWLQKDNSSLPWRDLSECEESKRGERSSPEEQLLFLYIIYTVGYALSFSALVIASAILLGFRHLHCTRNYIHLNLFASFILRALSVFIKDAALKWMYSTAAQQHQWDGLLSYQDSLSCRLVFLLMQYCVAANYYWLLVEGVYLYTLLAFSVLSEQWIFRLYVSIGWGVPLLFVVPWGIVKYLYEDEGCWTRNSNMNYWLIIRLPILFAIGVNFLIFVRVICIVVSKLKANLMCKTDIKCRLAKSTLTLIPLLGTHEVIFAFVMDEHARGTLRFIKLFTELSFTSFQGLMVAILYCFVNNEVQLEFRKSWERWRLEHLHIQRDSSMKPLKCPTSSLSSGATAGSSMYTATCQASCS

COCCn1c(Cc2ccc(-c3cccc(OCc4ccc(C#N)cc4F)n3)cc2C#CC2CCOCC2)nc2ccc(C(=O)O)cc21 [Example 438, 2-(4-(6-((4-cyano-2-fluorobenzyl)oxy)pyridin-2-yl)-2-((tetrahydro-2H-pyran-4-yl)ethynyl)benzyl)-1-(2-methoxyethyl)-1H-benzo[d]imidazole-6-carboxylic]
EC50 (GLP-1R; [2]): 64.7 nM | Predicted Hepatic Clearance (Pred. Cl.) [1]: 1.12 L/h/kg

COCCn1c(Cc2cc(F)c(-c3cccc(OCc4ccc(Cl)c(F)c4F)n3)cc2F)nc2ccc(C(=O)O)cc21 [Example 802]
EC50 (GLP-1R; [2]): 3.64 nM | Predicted Hepatic Clearance (Pred. Cl.) [1]: 0.14 L/h/kg

COCCn1c(Cc2c(F)cc(-c3cncnc3OCc3ccc(C#N)cc3F)cc2F)nc2ccc(C(=O)O)cc21 [Example 189, 2-(4-(4-((4-cyano-2-fluorobenzyl)oxy)pyrimidin-5-yl)-2,6-difluorobenzyl)-1-(2-methoxyethyl)-1H-benzo[d]imidazole-carboxylic acid]
EC50 (GLP-1R; [2]): 3050 nM | Predicted Hepatic Clearance (Pred. Cl.) [1]: 0.51 L/h/kg

N#Cc1ccc(COc2cccc(-c3cc(F)c(Cc4nc5ccc(C(=O)O)cc5n4CC4CC5(COC5)C4)cc3F)n2)c(F)c1 [Example 653]
EC50 (GLP-1R; [2]): 17 nM | Predicted Hepatic Clearance (Pred. Cl.) [1]: 0.16 L/h/kg

COC(CNC(C)=O)Cn1c(Cc2ccc(-c3cccc(OCc4ccc(C#N)cc4F)n3)cc2F)nc2ccc(C(=O)O)cc21 (single isomer, unassigned) [Example 342, 1-(3-acetamido-2-methoxypropyl)-2-(4-(6-((4-cyano-2-fluorobenzyl)oxy)pyridin-2-yl)-2-fluorobenzyl)-1H-benzo[d]imidazole-6-carboxylic acid]
EC50 (GLP-1R; [2]): 3360 nM | Predicted Hepatic Clearance (Pred. Cl.) [1]: 0.24 L/h/kg

COc1cc(C#N)ccc1COc1cccc(-c2cc(F)c(Cc3nc4ccc(C(=O)O)cc4n3CC3(CC#N)CC3)cc2F)n1 [Example 427, 2-(4-(6-((4-cyano-2-methoxybenzyl)oxy)pyridin-2-yl)-2,5-difluorobenzyl)-1-((1-(cyanomethyl)cyclopropyl)methyl)-1H-benzo[d]imidazole-6-carboxylic acid]
EC50 (GLP-1R; [2]): 0.06 nM | Predicted Hepatic Clearance (Pred. Cl.) [1]: <0.11 L/h/kg

N#Cc1ccc(COc2cccc(-c3cc(F)c(Cc4nc5ccc(C(=O)O)cc5n4C4CC5(COC5)C4)cc3F)n2)c(F)c1 [Example 728]
EC50 (GLP-1R; [2]): 93.6 nM | Predicted Hepatic Clearance (Pred. Cl.) [1]: 0.50 L/h/kg

N#Cc1ccc(COc2cccc(-c3ccc(Cc4nc5ccc(C(=O)O)cc5n4C4COC4)c(F)c3)n2)c(F)c1 [Example 203, 2-(4-(6-((4-cyano-2-fluorobenzyl)oxy)pyridin-2-yl)-2-fluorobenzyl)-1-(oxetan-3-yl)-1H-benzo[d]imidazole-6-carboxylic acid]
EC50 (GLP-1R; [2]): 420 nM | Predicted Hepatic Clearance (Pred. Cl.) [1]: 0.29 L/h/kg

N#Cc1ccc(COc2cccc(-c3cc(F)c(Cc4nc5ccc(C(=O)O)cc5n4CC4(F)CCOCC4)cc3F)n2)c(F)c1 [Example 713]
EC50 (GLP-1R; [2]): 5.76 nM | Predicted Hepatic Clearance (Pred. Cl.) [1]: 0.15 L/h/kg

N#Cc1ccc(COc2ccc(F)c(-c3cc(F)c(Cc4nc5c(F)cc(C(=O)O)cc5n4CC45COC(C4)C5)cc3F)n2)c(F)c1 [Example 782]
EC50 (GLP-1R; [2]): 3.31 nM | Predicted Hepatic Clearance (Pred. Cl.) [1]: 0.67 L/h/kg

N#CCC1(Cn2c(Cc3ccc(-c4cccc(OCc5ccc(C#N)cc5F)n4)cc3F)nc3ccc(C(=O)O)cc32)CC1 [Example 16, 2-(4-(6-((4-cyano-2-fluorobenzyl)oxy)pyridin-2-yl)-2-fluorobenzyl)-1-((1-(cyanomethyl)cyclopropyl)methyl)-1H-benzo[d]imidazole-6-carboxylic acid]
EC50 (GLP-1R; [2]): 0.55 nM | Predicted Hepatic Clearance (Pred. Cl.) [1]: 0.33 L/h/kg

N#CCC1(Cn2c(Cn3ccc(-c4cccc(OCc5ccc(C#N)cc5F)n4)cc3=O)nc3ccc(C(=O)O)cc32)CC1 [Example 422, 2-((6-((4-cyano-2-fluorobenzyl)oxy)-2′-oxo-[2,4′-bipyridin]-1′(2′H)-yl)methyl)-1-((1-(cyanomethyl)cyclopropyl)methyl)-1H-benzo[d]imidazole-6-carboxylic acid]
EC50 (GLP-1R; [2]): 0.87 nM | Predicted Hepatic Clearance (Pred. Cl.) [1]: 0.16 L/h/kg

COC[C@H](c1ccccc1)n1c(Cc2cc(F)c(-c3cccc(OCc4ccc(C#N)cc4F)n3)cc2F)nc2ccc(C(=O)O)cc21 [Example 717]
EC50 (GLP-1R; [2]): 41.5 nM | Predicted Hepatic Clearance (Pred. Cl.) [1]: 0.45 L/h/kg

CC(=O)N1CC2CC1(Cn1c(Cc3cc(F)c(-c4cccc(OCc5ccc(C#N)cc5F)n4)cc3F)nc3ccc(C(=O)O)cc31)C2 [Example 849, 1-((2-acetyl-2-azabicyclo[2.1.1]hexan-1-yl)methyl)-2-(4-(6-((4-cyano-2-fluorobenzyl)oxy)pyridin-2-yl)-2,5-difluorobenzyl)-1H-benzo[d]imidazole-6-carboxylic acid]
EC50 (GLP-1R; read-out: EC50): 14.2 nM | Predicted Hepatic Clearance (Pred. Cl.) [1]: 0.32 L/h/kg

O=C(O)c1ccc2nc(Cc3ccc(-c4cccc(OCc5ccc(C(F)F)cc5F)n4)cc3F)n(C[C@@H]3CCO3)c2c1 [Example 829]
EC50 (GLP-1R; [2]): 0.18 nM | Predicted Hepatic Clearance (Pred. Cl.) [1]: 0.11 L/h/kg

COCCn1c(Cc2cc(F)c(-c3cccc(OCc4ccc(OC)nc4)n3)cc2F)nc2ccc(C(=O)O)cc21 [Example 866, 2-[[2,5-difluoro-4-[6-[(6-methoxy-3-pyridyl)methoxy]-2-pyridyl]phenyl]methyl]-3-(2-methoxyethyl)benzimidazole-5-carboxylic acid]
EC50 (GLP-1R; [2]): 16.1 nM | Predicted Hepatic Clearance (Pred. Cl.) [1]: 0.49 L/h/kg

N#Cc1ccc(COc2cccc(-c3ccc(Cc4nc5ccc(C(=O)O)cc5n4CC4(C#N)CC4)c(F)c3)n2)c(F)c1 [Example 13, 2-(4-(6-((4-cyano-2-fluorobenzyl)oxy)pyridin-2-yl)-2-fluorobenzyl)-1-((1-cyanocyclopropyl)methyl)-1H-benzo[d]imidazole-6-carboxylic acid]
EC50 (GLP-1R; [2]): 2.7 nM | Predicted Hepatic Clearance (Pred. Cl.) [1]: 0.25 L/h/kg

COC[C@H]1C[C@H](n2c(Cc3cc(F)c(-c4cccc(OCc5ccc(C#N)cc5F)n4)cc3F)nc3ccc(C(=O)O)cc32)C1 [Example 731]
EC50 (GLP-1R; [2]): 290 nM | Predicted Hepatic Clearance (Pred. Cl.) [1]: 0.62 L/h/kg

COCCn1c(Cc2ccc(-c3cccc(OCc4cccc(OC(F)F)c4)n3)cc2F)nc2ccc(C(=O)O)cc21 [Example 505, 2-(4-(6-((3-(difluoromethoxy)benzyl)oxy)pyridin-2-yl)-2-fluorobenzyl)-1-(2-methoxyethyl)-1H-benzo[d]imidazole-6-carboxylic acid]
EC50 (GLP-1R; [2]): 41.2 nM | Predicted Hepatic Clearance (Pred. Cl.) [1]: <0.11 L/h/kg

N#Cc1ccc(COc2ncc(F)c(-c3ccc(Cc4nc5c(F)cc(C(=O)O)cc5n4C[C@@H]4CCO4)c(F)c3)n2)c(F)c1 [Example 880]
EC50 (GLP-1R; [2]): 0.26 nM | Predicted Hepatic Clearance (Pred. Cl.) [1]: 0.45 L/h/kg

CC1(Cn2c(Cc3ccc(-c4cccc(OCc5ccc(C#N)cc5F)n4)cc3F)nc3ccc(C(=O)O)cc32)CC1 [Example 9, 2-(4-(6-((4-cyano-2-fluorobenzyl)oxy)pyridin-2-yl)-2-fluorobenzyl)-1-((1-methylcyclopropyl)methyl)-1H-benzo[d]imidazole-6-carboxylic acid]
EC50 (GLP-1R; [2]): 1.75 nM | Predicted Hepatic Clearance (Pred. Cl.) [1]: <0.11 L/h/kg

N#Cc1ccc(COc2cccc(-c3ccc(Cc4nc5ccc(C(=O)O)cc5n4CC4CCC4)c(F)c3)n2)c(F)c1 [Example 382, 2-(4-(6-((4-cyano-2-fluorobenzyl)oxy)pyridin-2-yl)-2-fluorobenzyl)-1-(cyclobutylmethyl)-1H-benzo[d]imidazole-6-carboxylic acid]
EC50 (GLP-1R; [2]): 8.7 nM | Predicted Hepatic Clearance (Pred. Cl.) [1]: <0.11 L/h/kg

COCCn1c(Cc2cc(F)c(-c3cccc(OCc4ccc(-n5cccn5)nc4)n3)cc2F)nc2ccc(C(=O)O)cc21 [Example 865]
EC50 (GLP-1R; [2]): 29.8 nM | Predicted Hepatic Clearance (Pred. Cl.) [1]: 0.26 L/h/kg

CCn1nccc1Cn1c(Cc2ccc(-c3cccc(OCc4ccc(C#N)cc4F)n3)cc2F)nc2ccc(C(=O)O)cc21 [Example 524, 2-(4-(6-((4-cyano-2-fluorobenzyl)oxy)pyridin-2-yl)-2-fluorobenzyl)-1-((l-ethyl-1H-pyrazol-5-yl)methyl)-1H-benzo[d]imidazole-6-carboxylic acid]
EC50 (GLP-1R; [2]): 66.5 nM | Predicted Hepatic Clearance (Pred. Cl.) [1]: 0.43 L/h/kg

COCCn1c(Cc2ccc(-c3cccc(OCc4ccc(C#N)cc4F)n3)cc2C(F)(F)F)nc2ccc(C(=O)O)cc21 [Example 172, 2-(4-(6-((4-cyano-2-fluorobenzyl)oxy)pyridin-2-yl)-2-(trifluoromethyl)benzyl)-1-(2-methoxyethyl)-1H-benzo[d]imidazole-carboxylic acid]
EC50 (GLP-1R; [2]): 38 nM | Predicted Hepatic Clearance (Pred. Cl.) [1]: 0.57 L/h/kg

C[C@@H](O)Cn1c(Cc2cc(F)c(-c3cccc(OCc4ccc(C#N)cc4F)n3)cc2F)nc2ccc(C(=O)O)cc21 [Example 724]
EC50 (GLP-1R; EC50 (nM)): 15.1 nM | Predicted Hepatic Clearance (Pred. Cl.) [1]: 0.40 L/h/kg

N#Cc1ccc(COc2cccc(-c3cc(F)c(Cc4nc5ccc(C(=O)NS(=O)(=O)C6CC6)cc5n4C[C@@H]4CCO4)cc3F)n2)c(F)c1 [Example 163, (S)-2-(4-(6-((4-cyano-2-fluorobenzyl)oxy)pyridin-2-yl)-2,5-difluorobenzyl)-N-(cyclopropylsulfonyl)-1-(oxetan-2-ylmethyl)-1H-benzo[d]imidazole-6-carboxamide]
EC50 (GLP-1R; [2]): 1.41 nM | Predicted Hepatic Clearance (Pred. Cl.) [1]: 0.3 L/h/kg

COCCn1c(Cc2ccc(-c3cccc(OCc4ccc(C#N)cc4F)n3)cc2-c2cccc([N+](=O)[O-])c2)nc2ccc(C(=O)O)cc21 [Example 187, 2-((5-(6-((4-cyano-2-fluorobenzyl)oxy)pyridin-2-yl)-3′-nitro-[1,1′-biphenyl]-2-yl)methyl)-1-(2-methoxyethyl)-1H-benzo[d]imidazole-6-carboxylic acid]
EC50 (GLP-1R; [2]): 723 nM | Predicted Hepatic Clearance (Pred. Cl.) [1]: 0.89 L/h/kg

CC(C)(C)OCCn1c(Cc2cc(F)c(-c3cccc(OCc4ccc(C#N)cc4F)n3)cc2F)nc2ccc(C(=O)O)cc21 [Example 893, 1-(2-(tert-butoxy)ethyl)-2-(4-(6-((4-cyano-2-fluorobenzyl)oxy)pyridin-2-yl)-2,5-difluorobenzyl)-1H-benzo[d]imidazole-6-carboxylic acid]
EC50 (GLP-1R; EC50 (nM)): 35.3 nM | Predicted Hepatic Clearance (Pred. Cl.) [1]: 0.11 L/h/kg
